Tests used:
[1] = test system: low-level resistant strains (MRSA); settings: cited from earlier work
[2] = test system: S. aureus strains; test: E-Test MIC of oxacillin; format: cell-based; settings: Staphylococcus aureus

Cc1onc(-c2ccccc2)c1C(=O)N[C@@H]1C(=O)N2[C@@H]1SC(C)(C)[C@@H]2C(=O)O [OX, oxacillin]
oxacillin MIC of low-level resistant strains, at or just above the susceptible breakpoint [1]: 4 to 8 µg/mL | MIC ([2]; strain 31 (mecA −, PBP2 −)): 0.25 µg/mL | MIC ([2]; strain 34 (mecA +, PBP2 +)): 16 µg/mL | MIC ([2]; strain 2325 (mecA −, PBP2 −)): 0.19 µg/mL | MIC ([2]; strain 3421 (mecA +)): > 4 µg/mL | MIC ([2]; strain 3424 (mecA −, PBP2 −)): 1.5 µg/mL | MIC ([2]; strain 3425 (mecA −, PBP2 −)): 0.38 µg/mL | MIC ([2]; strain 5594 (mecA +, PBP2 +)): 0.38 µg/mL | MIC ([2]; strain 5595 (mecA +, PBP2 +)): 0.5 µg/mL | MIC ([2]; strain 5596 (mecA +, PBP2 +)): 0.5 µg/mL | MIC ([2]; strain 5597 (mecA +, PBP2 +)): 32 µg/mL | MIC ([2]; strain 5598 (mecA +, PBP2 +)): 32 µg/mL | MIC ([2]; strain 5599 (mecA +, PBP2 +)): 16 µg/mL | MIC ([2]; strain T775 (mecA +, PBP2 +)): 8 µg/mL | MIC ([2]; strain T2109 (mecA +, PBP2 +)): 32 µg/mL | MIC ([2]; strain T2110 (mecA +, PBP2 +)): 8 µg/mL | MIC ([2]; strain T2130 (mecA +, PBP2 +)): 32 µg/mL | MIC ([2]; strain T4031 (mecA +, PBP2 +)): 6 µg/mL | MIC ([2]; strain T4033 (mecA +, PBP2 +)): 1.5 µg/mL | MIC ([2]; strain T4035 (mecA +, PBP2 +)): 8 µg/mL

From US20040235012A1, “Method of detecting antibiotic resistance in microorganisms” (priority 2003, published 2004)
